In patent US11985974B2, “Antimicrobial ferulic acid derivatives and uses thereof” (WISCONSIN ALUMNI RESEARCH FOUNDATION, priority 2014, dated 2024):
“And” between values parts separate entries of the source, which are not always exact repeats. Identical values can stand only once. “Also recorded” adds a separate entry of the source.

Legend:
bck1Δ mutant = assay: Sensitivity of individual bck1Δ mutant; type: cell-based, Saccharomyces cerevisiae; conditions: bck1Δ mutant vs control strain
Method: (§1) The diferulate compounds tested were synthesized as described by Lu et al. (2012) and resuspended in DMSO. Caspofungin, nikkomycin Z, and MMS were purchased from Sigma-Aldrich. Echinocandin B was a gift from O. Kondo (Chugai Pharmaceuticals, Tokyo, Japan). Micafungin was provided by Astellas Pharma. Diferulates were initially screened at a concentration of 1 mg/mL to determine bioactivity. Cells of Saccharomyces cerevisiae (MATα pdr1Δ::natMX pdr3Δ::KLURA3 snq2Δ::KI.LEU2 can1Δ::STE2pr-Sp_his5 lyp1Δ his3Δ1 leu2Δ0 ura3Δ0 met15Δ0), referred to as the control strain, were grown in 200-μL cultures at 30° C. in YPD with a drug or DMSO control. Plates were read on a TECAN M1000 over a 48-h growth period. The specific growth rate was calculated using GCAT analysis software (https://gcat3-pub.glbrc.org/) (Sato et al. 2014). When presented, IC50 values for growth rate inhibition were calculated from triplicate eight-point dose curves and SigmaPlot 12.0. When presented, error bars are means±SEs of at least three replicates.

yeast cells (his3Δ) = assay: Mannoprotein and glucan staining (aniline blue, Con A); type: cell-based, Saccharomyces cerevisiae; conditions: 125 μg/mL, 6 h
Method: β-1,3-Glucan was stained with aniline blue (016-21302; Wako Chemicals) as described previously (Watanabe et al. 2001) with slight modification. Briefly, log-phase yeast cells (his3Δ) were cultured in YPD with poacic acid (125 μg/mL) at 25° C. Then, cells were collected at 0, 2, 4, and 6 h after treatment and stained with aniline blue without fixation as described previously (Okada et al. 2015). Cells mounted on a glass slide were exposed to UV for 30 s to bleach out poacic acid fluorescence before acquiring images. Staining of chitin or mannoproteins with calcofluor white (F3543; Sigma-Aldrich) or Alexa594-ConA (C11253; Life Technologies), respectively, was performed as described previously (Okada et al. 2015). For cell-free glucan staining, yeast glucan (G0331; Tokyo Chemical Industry) was suspended to 0.125% (wt/vol) poacic acid and observed under a fluorescent microscope using a regular DAPI filter set (Carl Zeiss).

β-1,3-glucan synthesis = assay: In vivo β-1,3-glucan synthesis (14C-glucose incorporation); type: cell-based, Saccharomyces cerevisiae; conditions: 250 μg/mL, 2 h, 25° C.
Method: Inhibition of in vivo β-1,3-glucan synthesis was measured as described previously with slight modification (n=3) (Abe et al. 2003). Yeast cells (his3Δ) were grown in YPD to early log phase at 25° C. The cultured cells were diluted to 1×10^7 cells per 1 mL with 1 mL of YPD medium containing one-tenth the glucose containing 23.125 kBq [14C] glucose (ARC0122; American Radiolabeled Chemicals) and test compounds [250 μg/mL for poacic acid, 4 μg/mL for echinocandin B, 30 mM for hydroxyurea (negative control), or 0.4% (vol/vol) DMSO as a solvent control]. The cells were radiolabeled by culturing at 25° C. for 2 h. The labeled cells were harvested and incubated with 1 N NaOH at 80° C. for 30 min. The insoluble pellets were resuspended in 10 mM Tris·HCl, pH 7.5, containing 5 mg/mL zymolyase 100T (Seikagaku) and incubated at 37° C. for 18 h. […] The flow-through fraction was mixed with scintillation mixture (Ultima Gold; PerkinElmer), and radioactivity was measured by a scintillation counter (LSC-6100; Aloka). The differences in the incorporation rates in samples were normalized by ΔOD600 measured before and after the labeling period.

Saccharomyces cerevisiae = assay: Growth inhibition of S. cerevisiae control strain by diferulates; type: cell-based; conditions: for bioactivity against S. cerevisiae: 1 mg/mL
Method: as §1

yeast cells = assay: Cell leakage assay (FungaLight, flow cytometry); type: cell-based, Saccharomyces cerevisiae; conditions: 4 h
Method: A FungaLight Cell Viability Assay (L34952; Invitrogen) using a Guava Flow Cytometer (Millipore) was used to determine if poacic acid caused membrane damage. The population of stained cells (damaged integrity) vs. nonstained cells can be determined by flow cytometry. Caspofungin (50 ng/mL) was included as a positive control. MMS and DMSO were included as a noncell wall-targeting control and a solvent control, respectively. To test the effects of the compounds on both active and arrested cells, log-phase cultures were washed with 1×PBS and resuspended to an OD0.5 in either YPD medium or YP (no carbon source) in the presence of the drugs (n=3) for 4 h at 30° C. The cells were then stained and immediately read by flow cytometry. One-way ANOVA and Tukey's test were used to calculate the difference between drug treatments among cells with arrested growth.

[1] = test system: Alternaria solani (field isolate); assay: Colony growth of A. solani on plates; type: cell-based; conditions: 0, 500, 1,000, 1,500 μg/mL, dose-dependent
Method: To test inhibition in liquid culture, a dose curve of 0, 125, 250, and 500 μg/mL poacic acid in 100 mL potato dextrose broth (n=3) was used. Cultures of S. sclerotiorum strain 1980 were inoculated with 100 μL homogenized mycelia and grown at 25° C. for 48 h. The mycelia in the liquid media were dried and weighed. The growth inhibition of poacic acid on solid agar cultures (potato dextrose agar) was assessed by generating replicate plates (n=3) containing 0, 125, 250, and 500 μg/mL poacic acid. Plates were inoculated with an actively growing plug of S. sclerotiorum and grown at 25° C. The mycelial radial growth after 48 h was measured Inhibition of S. sclerotiorum in planta was tested by inoculating detached soybean leaves of the commercial variety Williams 82 with an agar plug of actively growing S. sclerotiorum mycelia. Leaves were treated one time before inoculation with either an aerosol spray of water with DMSO (control) or a 500 μg/mL solution of poacic acid. Leaves were incubated in a moist environment, and lesion development was monitored up to 120 h postinoculation. […] The growth inhibition of poacic acid was assessed at 0, 500, 1,000, and 1,500 μg/mL in replicate plates (n=3). […] Colony diameter was monitored for each treatment in a time-course experiment. […]

COc1cc(/C=C/c2cc(/C=C/C(=O)O)cc(OC)c2O)ccc1O [poacic acid, (E)-4-Hydroxy-3-{2-[(E)-4-hydroxy-3-methoxystyryl]}-5-methoxycinnamic acid]
reduction in the IC50 compared with the control strain (WT) (bck1Δ mutant): six-fold reduction; also recorded: six-fold more sensitive | glucan staining with aniline blue in buds (yeast cells (his3Δ)): significantly decreased glucan staining in buds | mannoprotein staining with Con A (yeast cells (his3Δ)): does not change mannoprotein staining | 14C-glucose incorporation into the β-1,3-glucan layer (β-1,3-glucan synthesis): significantly less 14C-glucose incorporation | bioactivity against S. cerevisiae (Saccharomyces cerevisiae): greatest antifungal activity | bioactivity against S. cerevisiae (Saccharomyces cerevisiae; listed as Poacic acid): highest bioactivity | IC50 (Saccharomyces cerevisiae; Saccharomyces cerevisiae, read-out: IC50 (growth rate inhibition)): 111 µg/mL and 324 µM | cell leakage (propidium iodide uptake) (yeast cells; actively growing cells (YPD)): caused rapid cell leakage | cell leakage (propidium iodide uptake) (yeast cells; arrested cells without carbon source (YP)): leakage was still significantly greater | colony growth on plates [1]: significantly (P<0.01) inhibited
